Experimental data from US8962688B2, “Method for the treatment of gastrointestinal disorders” (Sucampo AG, priority 2005, dated 2015).

Assays:
[1] = system: rabbit platelet aggregation induced with ADP; test: Rabbit platelet aggregation induced with ADP; format: cell-based; settings: for % Inhibition / Maximum aggregation: 10^−7 g/mL, platelet-rich plasma; for Maximum aggregation: mean ± SE, n=3; for Effect on the platelet aggregation: result in words, summary of Table 3
Method: Blood was collected from rabbits of the JW/CSK strain and citrated by mixing with sodium citrate in a ratio of 9 volumes of blood to 1 volume of 3.8% sodium citrate solution. Platelet-rich plasma (PRP) was obtained by centrifugation of the citrated blood at 1000 rpm (168×g) for 10 minutes. After collection of PRP, residual blood was further centrifuged at 3000 rpm (1670×g) for 15 minutes, and the supernatant was used as platelet-poor plasma (PPP). After pre-incubation of PRP (200 μL) with each test solution (25 μL) for 1 minutes at 37° C., 25 μL of platelet aggregation agent (ADP […]) was added. Platelet aggregation was measured with a platelet aggregation meter (HEMATRACER PAT-4A, Niko Bioscience, Inc.). Each test solution was examined with 3 different animal source platelets in duplicate fashion. Inhibition percent was calculated by comparing with the maximal aggregation with the saline-treatment group.

total acid output = test: Total gastric acid output in pylorus-ligated rats; format: in vivo, rat; settings: oral, 30 min before pyloric ligation; 4 hours output; compared to vehicle-treated control (FIG. 1)
Method: The study was conducted according to the method described by Wong et al (Pharmacol. Soc. 32:49-56, 1989). Each group of test animals used consisted of 6 male rats of the Crj: Wistar strain. The animals were fasted for 24 hours with free access to water. Each dose formulation of Compound 1 (13,14-dihydro-15-keto-16,16-difluoro-PGE1), saline and medium chain fatty acid triglyceride (MCT) was orally administered 30 minutes before pyloric ligation. For positive control, the animals were received pentagastrin, a known gastric acid stimulator, subcutaneously at 2000 μg/kg. Under ether anesthesia, the abdomen was opened through a midline incision, the pylorus ligated with 3-0 silk suture, and the abdomen closed. The animals were kept without diet and water thereafter. Four hours after pyloric ligation, the animals were euthanized by cervical dislocation and the abdomen opened. The gastric contents were collected into sterile centrifuge tubes, and centrifuged at 3000 rpm for 10 minutes to remove solid materials. The supernatant was collected and the volume measured. A 1 mL aliquot of each gastric fluid sample was titrated to pH 7.0 with 0.01 N sodium hydroxide using an automatic […], Co., Ltd., Japan) to determine the acidity (mEq H^+/mL) Total output of gastric acid for 4 hours was calculated

[2] = system: indomethacin-induced stomach ulcers; test: Indomethacin-induced stomach ulcers in rats; format: in vivo, rat
Method: Each group of test animals used consisted of 10 male rats of the Crj: Wistar strain. The animals were fasted for 24 hours before the oral administration of the Compound 1 (13,14-dihydro-15-keto-16,16-difluoro-PGE1) or the vehicle. Ten minutes after the oral administration of the test sample or the vehicle, all rats received a 20 mg/kg oral dose of indomethacin. The animals were euthanized 6 hours later. The stomach was removed and the length of the longest axis of each stomach ulcer was measured. The ulcer index was calculated as the sum of the lengths of each individual ulcer.

[3] = system: gastric ulcer induced by water-immersion stress; test: Gastric ulcer induced by water-immersion stress (5 hours) in rats, single and combined treatment; format: in vivo, rat; settings: for Inhibition of the gastric ulcer: result in words, summary of Table 4
Method: Wistar rats were used after an overnight fast with free access to water. Compound 1 (13,14-dihydro-15-keto-16,16-difluoro-PGE1) or Compound 2(13,14-dihydro-15-keto-16,16-difluoro-18(s) methyl-PGE1) was orally administered to the animals. When the effect of combined treatment with Compound 1 and proton pump inhibitor (lansoprazole or omeprazole) was evaluated, Compound 1 and proton pump inhibitor were orally administered simultaneously. Control group received the same volume of the vehicle. Ten minutes after the administration, the animals were placed in stress cages and were vertically immersed to the xiphoid process in a water bath maintained at 23° C. Five hours later, each animal was taken out from the cage and sacrificed by CO2 asphyxiation. The stomach was removed after ligating the cardiac region of stomach and the upper part of duodenum. The stomach was filled with 4 mL of physiological saline solution, and fixed in 1% formalin solution for 30 minutes. The stomach was opened along the greater curvature. The length (mm) of the individual ulcer was measured and the ulcer index was expressed as the sum of the lengths of all ulcers per stomach.

[4] = system: stress-induced stomach ulcers; test: Stress-induced (water immersion, 6 hours) stomach ulcers in rats; format: in vivo, rat; settings: for Ulcer index (sum of lengths of each individual ulcer): mean ± SE
Method: Each group of test animals used consisted of 9 or 10 male rats of the Crj: Wistar strain. The animals were fasted for 24 hours before the oral administration of the test sample. Ten minutes after the oral administration of various doses of the Compound 1 (13,14-dihydro-15-keto-16,16-difluoro-PGE1) or the vehicle, each animal was put in a narrow cage, and was immersed in water (23° C.) up to the height of the xipoid process for 6 hours. The animals were then euthanized. The stomach was removed and the maximum length of the longest axis of each stomach ulcer was measured. The ulcer index was calculated as the sum of lengths of each individual ulcer.

SMILES | % Inhibition [1] [%] | Maximum aggregation [1] [%] | Effect on the platelet aggregation [1] | Inhibition ([3]; 10 μg/kg p.o.) [%] | Ulcer Index Mean ± S.E. ([3]; 10 μg/kg p.o.) [mm] | Inhibition ([3]; 30 μg/kg p.o.) [%] | Ulcer Index Mean ± S.E. ([3]; 30 μg/kg p.o.) [mm] | Inhibition ([3]; 100 μg/kg p.o.) [%] | Ulcer Index Mean ± S.E. ([3]; 100 μg/kg p.o.) [mm] | Inhibition of the gastric ulcer [3] | other results
CCCCC(F)(F)C(=O)CCC1C(O)CC(=O)C1CCCCCCC(=O)O (stereo not shown) [Compound 1, 13,14-dihydro-15-keto-16,16-difluoro-PGE1] | 0 | 49.5 ± 2.5 | no effect | 23 | 12.2 ± 1.9 | 36 | 10.1 ± 1.6 | 91 | 1.4 ± 0.6 | dose-dependent manner | Effect on total acid output (total acid output): did not affect; Ulcer index (sum of lengths of each individual ulcer) ([2]; 2 μg/kg po, 10 min before indomethacin 20 mg/kg po, mean ± SE): 27.9 ± 5.1; % Inhibition ([2]; 2 μg/kg po, versus vehicle control): 44%; Protection against indomethacin-induced ulcer formation ([2]; result in words, summary of Table 1): significant protection; % Inhibition ([4]; 3 μg/kg po): 9.2%; Ulcer index (sum of lengths of each individual ulcer) ([4]; 3 μg/kg po): 26.6 ± 3.7; % Inhibition ([4]; 10 μg/kg po): 20.1%; Ulcer index (sum of lengths of each individual ulcer) ([4]; 10 μg/kg po): 23.4 ± 4.7; % Inhibition ([4]; 30 μg/kg po): 54.3%; Ulcer index (sum of lengths of each individual ulcer) ([4]; 30 μg/kg po): 13.4 ± 2.0; % Inhibition ([4]; 100 μg/kg po): 85.3%; Ulcer index (sum of lengths of each individual ulcer) ([4]; 100 μg/kg po): 4.3 ± 1.9; Protection against stress-induced ulcer formation ([4]; result in words, summary of Table 2): protection significantly
CC[C@H](C)CC(F)(F)C(=O)CC[C@H]1[C@H](O)CC(=O)[C@@H]1CCCCCCC(=O)O [Compound 2, 13,14-dihydro-15-keto-16,16-difluoro-18(s) methyl-PGE1] | – | – | – | 21 | 12.6 ± 2.2 | 36 | 10.2 ± 2.0 | 85 | 2.4 ± 0.9 | dose-dependent manner | –
Cc1c(OCC(F)(F)F)ccnc1C[S+]([O-])c1nc2ccccc2[nH]1 (stereo not shown) [Lansoprazole, lansoprazole, reference compound] | – | – | – | – | – | – | – | – | – | – | Ulcer Index Mean ± S.E. ([3]; Lansoprazole 1000 μg/kg p.o. alone): 4.6 ± 1.2 mm; inhibition at 1 mg/kg ([3]; Rattus norvegicus, po, Lansoprazole 1000 μg/kg p.o. alone): 46%
COc1ccc2[nH]c([S+]([O-])Cc3ncc(C)c(OC)c3C)nc2c1 (stereo not shown) [Omeprazole, omeprazole, reference compound] | – | – | – | – | – | – | – | – | – | – | Ulcer Index Mean ± S.E. ([3]; Omeprazole 3000 μg/kg p.o. alone): 5.9 ± 0.9 mm; inhibition at 3 mg/kg ([3]; Rattus norvegicus, po, Omeprazole 3000 μg/kg p.o. alone): 31%
CCCCC[C@H](O)/C=C/[C@H]1[C@H](O)CC(=O)[C@@H]1CCCCCCC(=O)O [PGE1, prostaglandin E1, reference compound] | 73 | 23.3 ± 1.9 | significantly inhibited | – | – | – | – | – | – | – | –
